Counter-ions that a name gives are not always drawn.

CDK12/CycK, sequence (Q9NYV4 whole entry): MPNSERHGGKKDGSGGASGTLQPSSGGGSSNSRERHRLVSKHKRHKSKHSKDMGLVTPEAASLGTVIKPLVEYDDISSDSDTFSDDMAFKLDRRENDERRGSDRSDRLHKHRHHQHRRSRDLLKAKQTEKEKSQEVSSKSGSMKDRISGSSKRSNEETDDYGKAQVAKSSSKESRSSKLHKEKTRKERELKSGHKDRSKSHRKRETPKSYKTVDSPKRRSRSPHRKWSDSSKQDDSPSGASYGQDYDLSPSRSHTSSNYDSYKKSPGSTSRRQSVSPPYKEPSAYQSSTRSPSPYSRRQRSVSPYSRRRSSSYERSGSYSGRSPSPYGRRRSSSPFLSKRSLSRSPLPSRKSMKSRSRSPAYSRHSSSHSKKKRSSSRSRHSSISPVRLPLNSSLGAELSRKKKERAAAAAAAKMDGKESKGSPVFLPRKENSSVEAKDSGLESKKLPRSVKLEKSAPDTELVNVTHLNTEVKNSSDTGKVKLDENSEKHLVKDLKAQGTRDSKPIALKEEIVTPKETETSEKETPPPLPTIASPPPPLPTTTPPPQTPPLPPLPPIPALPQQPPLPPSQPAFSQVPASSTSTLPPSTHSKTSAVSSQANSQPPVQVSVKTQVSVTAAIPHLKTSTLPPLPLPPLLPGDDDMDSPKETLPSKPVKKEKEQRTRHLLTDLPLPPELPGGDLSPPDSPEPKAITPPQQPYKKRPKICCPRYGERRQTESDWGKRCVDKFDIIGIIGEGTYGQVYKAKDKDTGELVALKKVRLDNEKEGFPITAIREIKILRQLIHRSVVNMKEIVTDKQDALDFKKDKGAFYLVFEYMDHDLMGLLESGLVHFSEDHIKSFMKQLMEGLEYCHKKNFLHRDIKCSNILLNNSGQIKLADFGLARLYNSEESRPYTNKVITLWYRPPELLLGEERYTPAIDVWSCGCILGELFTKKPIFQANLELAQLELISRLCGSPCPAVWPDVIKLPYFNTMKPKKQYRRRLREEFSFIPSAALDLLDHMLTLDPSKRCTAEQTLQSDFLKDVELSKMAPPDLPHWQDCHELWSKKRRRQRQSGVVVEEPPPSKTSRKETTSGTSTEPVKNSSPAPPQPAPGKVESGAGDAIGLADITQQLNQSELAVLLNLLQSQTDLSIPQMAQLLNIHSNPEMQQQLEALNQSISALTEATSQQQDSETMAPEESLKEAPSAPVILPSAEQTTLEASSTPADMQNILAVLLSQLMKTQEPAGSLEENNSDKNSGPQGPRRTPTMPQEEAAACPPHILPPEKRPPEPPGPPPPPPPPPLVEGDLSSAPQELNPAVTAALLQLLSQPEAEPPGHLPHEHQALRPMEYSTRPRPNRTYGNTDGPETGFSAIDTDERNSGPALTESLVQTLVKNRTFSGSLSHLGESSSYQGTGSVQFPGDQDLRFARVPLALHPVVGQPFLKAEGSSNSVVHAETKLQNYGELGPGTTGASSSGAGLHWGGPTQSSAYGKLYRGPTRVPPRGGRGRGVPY
CDK12/CycK, sequence (O75909 whole entry partner): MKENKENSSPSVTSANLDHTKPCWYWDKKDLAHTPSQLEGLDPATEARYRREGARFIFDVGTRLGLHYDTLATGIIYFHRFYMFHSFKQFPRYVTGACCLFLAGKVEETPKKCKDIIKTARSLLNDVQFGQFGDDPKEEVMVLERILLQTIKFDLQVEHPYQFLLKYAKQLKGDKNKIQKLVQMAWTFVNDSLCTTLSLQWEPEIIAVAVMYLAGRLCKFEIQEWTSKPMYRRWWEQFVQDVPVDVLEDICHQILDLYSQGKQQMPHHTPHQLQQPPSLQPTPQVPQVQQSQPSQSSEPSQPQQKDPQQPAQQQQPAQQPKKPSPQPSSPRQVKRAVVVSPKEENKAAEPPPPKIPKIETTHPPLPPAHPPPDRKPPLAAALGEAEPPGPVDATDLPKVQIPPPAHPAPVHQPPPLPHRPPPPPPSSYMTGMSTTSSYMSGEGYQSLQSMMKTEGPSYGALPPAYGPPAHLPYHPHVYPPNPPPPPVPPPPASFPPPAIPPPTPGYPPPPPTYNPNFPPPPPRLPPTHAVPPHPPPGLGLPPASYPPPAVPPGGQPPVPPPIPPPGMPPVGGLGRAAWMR

The test has as its target CDK12/CycK (Homo sapiens, UniProt Q9NYV4). Description: Inhibition of CDK12 (ADP-Glo kinase assay). The class given is biochemical. The settings on record: 60 nM CDK12/CycK, 30 minutes pre-incubation, 1 μM ATP, 0.5 μM RBER-IRStide substrate, 1 h at 25° C., read-out: CDK12/cyclin K IC50. The method, then:
Assay buffer comprised 50 mM HEPES pH 7.5, 1 mM DTT, 20 mM MgCl2, 3 mM MnCl2, 3 μM Na3VO4 and 50 μg/ml PEG8000. Kinase reactions were carried out in 384-well Optiplates™ (PerkinElmer 6007299). Test compounds were dissolved & diluted in dimethyl sulfoxide (DMSO) and cross diluted into assay buffer with a final DMSO concentration of 1% (v/v) in the assay. Test compounds (or 1% DMSO in control and blank wells) were pre-incubated with 60 nM CDK12/CycK for 30 minutes. After this time 1 μM Adenosine-5′-triphosphate (ATP) and 0.5 μM RBER-IRStide substrate (ProQinase 0863-0000-1) were added to commence the kinase reaction. Incubations were carried out for 1 h at 25° C. with kinase activity determined using the ADP-Glo™ reagent from Promega according to the manufacturer's instructions. Light generated is proportional to kinase activity and measured using a luminometer (EnVision, PerkinElmer). The signal obtained in the blank wells (containing no kinase) was subtracted from all other wells and IC50 values were determined by fitting a sigmoidal curve to % inhibition of control versus Log10 compound concentration.
As for `CN(C)C/C=C/C(=O)N1CCCC[C@H]1C(=O)NCCc1cc2c(-c3cnn4ncccc34)ccnc2[nH]1` [Example 87, (S,E)-1-(4-(Dimethylamino)but-2-enoyl)-N-(2-(4-(pyrazolo[1,5-b]pyridazin-3-yl)-1H-pyrrolo[2,3-b]pyridin-2-yl)ethyl)piperidine-2-carboxamide], the IC50 was 1 to 30 µM.

As for `CN(C)C/C=C/C(=O)N1CCCC[C@@H]1C(=O)NCCc1cc2c(-c3cnn4ncccc34)ccnc2[nH]1` [Example 88, (R,E)-1-(4-(Dimethylamino)but-2-enoyl)-N-(2-(4-(pyrazolo[1,5-b]pyridazin-3-yl)-1H-pyrrolo[2,3-b]pyridin-2-yl)ethyl)piperidine-2-carboxamide Formate Salt], the IC50 is 0.1 to 1 µM. In the case of `O=C(NCCc1cc2c(-c3cnn4ncccc34)ccnc2[nH]1)[C@@H]1CCCN1S(=O)(=O)c1ccccc1` [Example 89, (S)-1-(phenylsulfonyl)-N-(2-(4-(pyrazolo[1,5-b]pyridazin-3-yl)-1H-pyrrolo[2,3-b]pyridin-2-yl)ethyl)pyrrolidine-2-carboxamide], the IC50 lay within 0.1 to 1 µM. For `C=CC(=O)N1CCCC[C@@H]1C(=O)NCCc1cc2c(-c3cnn4ncccc34)ccnc2[nH]1` [Example 93, (R)-1-Acryloyl-N-(2-(4-(pyrazolo[1,5-b]pyridazin-3-yl)-1H-pyrrolo[2,3-b]pyridin-2-yl)ethyl)piperidine-2-carboxamide], the IC50 was < 0.1 µM. `C=CC(=O)N1CCC[C@H]1C(=O)NCCc1cc2c(-c3ccncc3)ccnc2[nH]1` [Example 95, (S)-1-Acryloyl-N-(2-(4-(pyridin-4-yl)-1H-pyrrolo[2,3-b]pyridin-2-yl)ethyl)pyrrolidine-2-carboxamide]: the IC50 fell in the range of 1 to 30 µM. Next, `NCCc1cc2c(-c3cnn4ncccc34)c(Cl)cnc2[nH]1` [Example 101, 2-(5-chloro-4-(pyrazolo[1,5-b]pyridazin-3-yl)-1H-pyrrolo[2,3-b]pyridin-2-yl)ethan-1-amine]: 0.1 to 1 µM; `NCCc1cc2c(-c3cccnc3)ccnc2[nH]1` [Example 104, 2-(4-(Pyridin-3-yl)-1H-pyrrolo[2,3-b]pyridin-2-yl)ethan-1-amine]: 1 to 30 µM. As for `C=CC(=O)N1CCC[C@H]1C(=O)NCCc1cc2c(-c3cccnc3)ccnc2[nH]1` [Example 105, (S)-1-Acryloyl-N-(2-(4-(pyridin-3-yl)-1H-pyrrolo[2,3-b]pyridin-2-yl)ethyl)pyrrolidine-2-carboxamide], the figure is 1 to 30 µM. Next, `O=C(NCCc1cc2c(-c3ccncc3)ccnc2[nH]1)[C@@H]1CCCN1` [Example 107, (S)—N-(2-(4-(Pyridin-4-yl)-1H-pyrrolo[2,3-b]pyridin-2-yl)ethyl)pyrrolidine-2-carboxamide]: 1 to 30 µM; `Nc1cccc(-c2cc3c(-c4cnn5ncccc45)ccnc3[nH]2)c1` [Example 114, 3-(4-(Pyrazolo[1,5-b]pyridazin-3-yl)-1H-pyrrolo[2,3-b]pyridin-2-yl)aniline]: < 0.1 µM. As to `C=CC(=O)Nc1cccc(C(=O)Nc2cccc(-c3cc4c(-c5cnn6ncccc56)ccnc4[nH]3)c2)c1` [Example 115, 3-Acrylamido-N-(3-(4-(pyrazolo[1,5-b]pyridazin-3-yl)-1H-pyrrolo[2,3-b]pyridin-2-yl)phenyl)benzamide], the IC50 was < 0.1 µM. As for `O=C(NCc1cc2c(-c3cnn4ncccc34)ccnc2[nH]1)C1CC1` [Example 116, N-((4-(Pyrazolo[1,5-b]pyridazin-3-yl)-1H-pyrrolo[2,3-b]pyridin-2-yl)methyl)cyclopropanecarboxamide], the figure is 1 to 30 µM; as for `CN(C)CC(=O)NCc1cc2c(-c3cnn4ncccc34)ccnc2[nH]1` [Example 117, 2-(Dimethylamino)-N-((4-(pyrazolo[1,5-b]pyridazin-3-yl)-1H-pyrrolo[2,3-b]pyridin-2-yl)methyl)acetamide Formate Salt], 1 to 30 µM. As for `O=S(=O)(NCc1cc2c(-c3cnn4ncccc34)ccnc2[nH]1)C1CC1` [Example 118, N-((4-(Pyrazolo[1,5-b]pyridazin-3-yl)-1H-pyrrolo[2,3-b]pyridin-2-yl)methyl)cyclopropanesulfonamide], the figure is 1 to 30 µM.

In the case of `CC(C)(C)OC(=O)N1CCC(c2cc3c(-c4cnn5ncccc45)ccnc3[nH]2)C1` (centres unmarked) [Example 119, tert-Butyl 3-(4-(pyrazolo[1,5-b]pyridazin-3-yl)-1H-pyrrolo[2,3-b]pyridin-2-yl)pyrrolidine-1-carboxylate], the IC50 fell in the range of 0.1 to 1 µM. In the case of `c1cnn2ncc(-c3ccnc4[nH]c(C5CCNC5)cc34)c2c1` (centres unmarked) [Example 122, 3-[2-(pyrrolidin-3-yl)-1H-pyrrolo[2,3-b]pyridine-4-yl)pyrazolo[1,5-b]pyridazine], the IC50 was < 0.1 µM.

With `C#CC(=O)Nc1ccc(C(=O)N2CCC(c3cc4c(-c5cnn6ncccc56)ccnc4[nH]3)C2)cc1` (centres unmarked) [Example 128, N-(4-(3-(4-(Pyrazolo[1,5-b]pyridazin-3-yl)-1H-pyrrolo[2,3-b]pyridin-2-yl)pyrrolidine-1-carbonyl)phenyl)propiolamide], the IC50 was < 0.1 µM. As for `OCC(O)COc1cnn2ncc(-c3ccnc4[nH]ccc34)c2c1` (centres unmarked) [Example 131, 3-((3-(1H-Pyrrolo[2,3-b]pyridin-4-yl)pyrazolo[1,5-b]pyridazin-5-yl)oxy)propane-1,2-diol], the figure is 1 to 30 µM; as for `Clc1cnc2[nH]ccc2c1-c1cnn2ncccc12` [Example 132, 3-(5-Chloro-1H-pyrrolo[2,3-b]pyridin-4-yl)pyrazolo[1,5-b]pyridazine], 0.1 to 1 µM.

For `CCn1cc(-c2ccnc3[nH]ccc23)nn1` [Example 133, 4-(1-Ethyl-1H-1,2,3-triazol-4-yl)-1H-pyrrolo[2,3-b]pyridine], the IC50 lay in the range of 1 to 30 µM. In the case of `c1ccc(Cn2cc(-c3ccnc4[nH]ccc34)nn2)cc1` [Example 134, 4-(1-Benzyl-1H-1,2,3-triazol-4-yl)-1H-pyrrolo[2,3-b]pyridine], the IC50 lay within 1 to 30 µM. Next, `COc1ccc(Cn2cc(-c3ccnc4[nH]ccc34)nn2)cc1` [Example 135, 4-(1-(4-Methoxybenzyl)-1H-1,2,3-triazol-4-yl)-1H-pyrrolo[2,3-b]pyridine]: 1 to 30 µM; `c1cncc(Cn2cc(-c3ccnc4[nH]ccc34)nn2)c1` [Example 136, 4-(1-(Pyridin-3-ylmethyl)-1H-1,2,3-triazol-4-yl)-1H-pyrrolo[2,3-b]pyridine]: 1 to 30 µM; `CN(C)C/C=C/C(=O)Nc1cccc(C(=O)N2CCC(c3cc4c(-c5cnn6ncccc56)ccnc4[nH]3)C2)c1` (centres unmarked) [Example 142, (E)-4-(Dimethylamino)-N-(3-(3-(4-(pyrazolo[1,5-b]pyridazin-3-yl)-1H-pyrrolo[2,3-b]pyridin-2-yl)pyrrolidine-1-carbonyl)phenyl)but-2-enamide]: < 0.1 µM. Take `C=CC(=O)N1CCC(C(=O)N2CCC(c3cc4c(-c5cnn6ncccc56)ccnc4[nH]3)C2)CC1` (centres unmarked) [Example 143, 1-(4-(3-(4-(Pyrazolo[1,5-b]pyridazin-3-yl)-1H-pyrrolo[2,3-b]pyridin-2-yl)pyrrolidine-1-carbonyl)piperidin-1-yl)prop-2-en-1-one]: the IC50 was < 0.1 µM. As for `C#CC(=O)N1CCC(C(=O)N2CCC(c3cc4c(-c5cnn6ncccc56)ccnc4[nH]3)C2)CC1` (centres unmarked) [Example 147, 1-(4-(3-(4-(Pyrazolo[1,5-b]pyridazin-3-yl)-1H-pyrrolo[2,3-b]pyridin-2-yl)pyrrolidine-1-carbonyl)piperidin-1-yl)prop-2-yn-1-one], the figure is < 0.1 µM.

(Values after patent US11407767B2, “Heterocyclyl substituted pyrrolopyridines that are inhibitors of the CDK12 kinase” (The University of Nottingham, priority 2017, dated 2022).)
